Assay results: patent publication US12419305B2, “Antimicrobial compositions” (Firmenich SA, priority 2018, dated 2025)

What was measured:
S. haemolyticus 114126 = experiment: BCT test (bacterial contact time), 120 s, log reduction / effect fraction; CI by Compusyn; type: cell-based; settings: Staphylococcus haemolyticus, 114126, 2 min, contact 120 s, 25% EtOH
Protocol: S. haemolyticus: Suspensions of the S. haemolyticus 114126 strain, isolated from skin, were prepared as follows: Stock cultures (stored at −80° C.) were thawed and sub-cultured onto TSA-TW80 agar plate media, and incubated at 37° C. for 24 h to obtain single colonies. Single colonies of the primary cultures were streaked onto fresh TSA-TW80 plates and incubated at 37° C. for 24 h to prepare secondary cultures. Single colonies of secondary cultures were picked and used to inoculate 50 mL of BHI-TW80 broth. The inoculated broth was incubated at 37° C. at 180 rpm for 18 h. Aliquots (0.5 ml) of the 18 h culture were inoculated into 50 ml of fresh BHI-TW80 broth, and incubated at 37° C. at 180 rpm for approximately 3 hours. When the OD 600 nm value of the broth reached 1-2, cells were harvested by centrifugation at 5000 rpm for 10 min, and then resuspended in fresh BHI-TW80 broth at a concentration of 1-5×10^8 CFU/mL. This suspension was used as the bacterial suspension for the BCT test.
(§1) BCT Test: Test compositions at a range of concentrations (either combinations of more than one perfume ingredient, and comparative compositions comprising the single perfume ingredients) were prepared in ethanol. Five replicates of each test composition were added into 96-well microtiter plates (120 μl per well), with row B containing control compositions containing the ethanol solution alone. 120 μl of bacterial cell suspensions at a concentration of approximately 1×10^8 bacteria per mL (as prepared above) were added to each well of the microtiter plate. The bacterial suspensions were incubated with the test solutions for 45, 60, or 120 seconds. Following the incubation of the bacterial suspensions with the test solutions, serial dilutions of the bacterial suspensions were generated (three serial 1:10 dilutions, followed by 17 serial 1:2 dilutions), in multiwell microtiter plates.
(§2) Each plate was sealed and incubated at 37° C. under agitation (180 rpm). After incubation, the turbidity of the wells (OD600 nm) was determined using a Tecan microplate reader. Turbid wells were regarded as positive growth, due to the presence of viable cells. The total number of viable cells (log CFU) for each sample was calculated. And the log reduction for each test composition at the final concentration (dose) was calculated against the control sample of the ethanol solution.
(§3) Determination of Synergy via the Combination Index (CI): The CI was calculated using Compusyn software (ComboSyn, Inc., as created by Dr. Dorothy Chou in 2005), according to the manufacturer's instructions. The concentration of each test composition (combinations of more than one perfume ingredient, and comparative compositions comprising the single perfume ingredients used to generate the combination) and their corresponding effect fraction was entered, and the corresponding CI calculated.
(§4) When the calculated CI values were less than 0.9, the combination of perfume ingredients was regarded as having synergistic effect. When the calculated CI was between 1.0 a 0.9, the combination of perfume ingredients was regarded as having an additive effect. When the calculated CI was greater than 1.0, the combination of perfume ingredients was regarded as having an antagonistic effect.

E. coli ATCC 10536 = experiment: BCT test (bacterial contact time), 45 s, log reduction / effect fraction; CI by Compusyn; type: cell-based, Escherichia coli; settings: Escherichia coli, ATCC10536, 45 s, 45 s, in 20% EtOH
Protocol: E. coli, S. aureus, P. aeruginosa, and S. enterica: Separate suspensions of the E. coli ATCC 10536 strain, S. aureus ATCC 6538 strain, Pseudomonas aeruginosa ATCC 15442 strain, and the Salmonella enterica ATCC 10708 strain were prepared as follows: Stock cultures (stored at −80° C.) were thawed and sub-cultured onto Tryptic Soy Agar (TSA) agar plate media, and incubated at 37° C. for 24 h to obtain single colonies. Single colonies of the primary cultures were streaked onto TSA plates and incubated at 37° for 24 h to generate secondary cultures. Single colonies of secondary cultures picked and used to inoculate into 50 mL of TSB broth. The inoculated TSB broth was incubated at 37° C. at 180 rpm for 18 h. Aliquots (0.5 ml) of the 18 h culture were inoculated into 50 ml of fresh TSB broth, and incubated at 37° C. at 180 rpm for 2-3 hours. When the OD600 nm value of the broth reached 1-2, cells were harvested by centrifugation at 5000 rpm for 10 min, and then resuspended in fresh TSB broth at a concentration of 1-5×10^8 CFU/mL. These suspensions were used as the bacterial suspensions for the BCT test.
as §1, §2, §3, §4

S. aureus ATCC 6538 = experiment: BCT test (bacterial contact time), 60 s, log reduction / effect fraction; CI by Compusyn; type: cell-based, Staphylococcus aureus; settings: Staphylococcus aureus, ATCC6538, 1 min, 60 s, in 25% EtOH
Procedure, shortened: (§5)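 Combination index comes from dose and effect fraction of each blend and its single components, with values under 0.9 taken as synergistic and above 1.0 as antagonistic. Effect reflects log reduction in viable count after short contact of ~1×10^8 bacteria/mL with ethanolic test solutions.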

[1] = tested on: Pseudomonas aeruginosa ATCC 15442; experiment: as above; type: cell-based; settings: Pseudomonas aeruginosa, ATCC15442, 1 min, BCT 60 s, in 25% EtOH
Procedure, shortened: as §5

[2] = tested on: Salmonella enterica ATCC 10708; experiment: as above; type: cell-based; settings: Salmonella enterica, ATCC10708, 1 min, BCT 60 s, in 25% EtOH
Procedure, shortened: as §5

Compound: O=c1ccc2ccccc2o1 [Coumarine, 2H-chromen-2-one]
- log reduction at 0.5 % strength (S. haemolyticus 114126; dose 0.5% w/v): 0
- log reduction at 0.75 % strength (S. haemolyticus 114126; dose 0.75% w/v): 0.7
- log reduction at 1 % strength (S. haemolyticus 114126; dose 1.0% w/v): 1.7
- log reduction at 1.25 % strength (S. haemolyticus 114126; dose 1.25% w/v): 6.3
- log reduction at 1.5 % strength (S. haemolyticus 114126; dose 1.5% w/v): 7.5
- log reduction at 0.5 % strength (E. coli ATCC 10536; dose 0.500 % w/v): -0.1
- log reduction at 0.6 % strength (E. coli ATCC 10536; dose 0.600 % w/v, read-out: Log reduction): 0.2
- log reduction at 0.65 % strength (E. coli ATCC 10536; dose 0.650 % w/v): 0.5
- log reduction at 0.7 % strength (E. coli ATCC 10536; dose 0.700 % w/v): 2.8
- log reduction at 0.8 % strength (E. coli ATCC 10536; dose 0.800 % w/v): 7.3
- log reduction at 0.5 % strength (S. aureus ATCC 6538; dose 0.500 % w/v, read-out: Log reduction): -0.1
- log reduction at 0.75 % strength (S. aureus ATCC 6538; dose 0.750 % w/v, read-out: Log reduction): 0.4
- log reduction at 0.875 % strength (S. aureus ATCC 6538; dose 0.875 % w/v): 0.8
- log reduction at 1 % strength (S. aureus ATCC 6538; dose 1.000 % w/v, read-out: Log reduction): 2.1
- log reduction at 1.25 % strength (S. aureus ATCC 6538; dose 1.250 % w/v): 7
- log reduction at 0.3 % strength ([1]; Dose 0.3 % w/v, read-out: Log reduction): 0.4
- log reduction at 0.35 % strength ([1]; Dose 0.35 % w/v): 0.4
- log reduction at 0.4 % strength ([1]; Dose 0.4 % w/v, read-out: Log reduction): 0.7
- log reduction at 0.45 % strength ([1]; Dose 0.45 % w/v, read-out: Log reduction): 1.2
- log reduction at 0.5 % strength ([1]; Dose 0.5 % w/v): 2.9
- log reduction at 0.3 % strength ([2]; Dose 0.300 % w/v): 0.2
- log reduction at 0.4 % strength ([2]; Dose 0.400 % w/v): 3
- log reduction at 0.45 % strength ([2]; Dose 0.450 % w/v): 5.1
- log reduction at 0.5 % strength ([2]; Dose 0.500 % w/v): 7.5
- log reduction at 0.6 % strength ([2]; Dose 0.600 % w/v): 7.5
